The record followed here is PubChem BioAssay AID1259408 (Genetic Toxicology Data Bank (GENE-TOX), 2018).

For the data set, the system named is GENE-TOX genotoxicity assays, various organisms and cells. The data set is described as follows: GENE-TOX mutagenicity studies. The note with it: for call: Assay Type: In vivo carcinogenicity studies.
Where [1] appears, read: Species/Cell Type: Salmonella typhimurium (one or more of the five standard strains: TA98, TA100, TA1535, TA1537, and TA1538), Assay Type: Histidine reverse gene mutation, Ames assay, Assay Code: SALT, Evaluation Type: Evaluation A (Pre-1980).
The mark [2] stands for this setting: Species/Cell Type: Bacillus subtilis (H17 vs M45), Assay Type: Rec-assay, spot test, DNA effects (bacterial DNA repair), Assay Code: REWT, Evaluation Type: Evaluation A (Pre-1980).
The mark [3] stands for this setting: Species/Cell Type: Salmonella typhimurium (one or more of the five standard strains: TA98, TA100, TA1535, TA1537, and TA1538), Assay Type: Histidine reverse gene mutation, Ames assay, Assay Code: SAL+*, Activation: With metabolic activation, Evaluation Type: Evaluation A (Pre-1980).
[4] abbreviates: Species/Cell Type: Nonhuman, Assay Type: Sister-chromatid exchange (SCE) in vitro, Assay Code: SC2T, Evaluation Type: Evaluation B (Post-1980).
[5] abbreviates: Species/Cell Type: Salmonella typhimurium (one or more of the five standard strains: TA98, TA100, TA1535, TA1537, and TA1538), Assay Type: Histidine reverse gene mutation, Ames assay, Assay Code: SAL+, Evaluation Type: Evaluation A (Pre-1980).
Where [6] appears, read: Species/Cell Type: Human, Assay Type: Sister-chromatid exchange (SCE) in vitro, Assay Code: SC1T, Evaluation Type: Evaluation B (Post-1980).
The mark [7] stands for this setting: Species/Cell Type: Drosophila melanogaster, Assay Type: Sex-linked recessive lethal gene mutation, Assay Code: SRL+, Evaluation Type: Evaluation A (Pre-1980).
[8] abbreviates: Species/Cell Type: Neurospora crassa, Assay Type: Forward gene mutation, Assay Code: NEF+, Evaluation Type: Evaluation A (Pre-1980).
Where [9] appears, read: Species/Cell Type: Saccharomyces cerevisiae, Assay Type: Mitotic recombination or gene conversion, Assay Code: YEH+, Evaluation Type: Evaluation A (Pre-1980).

The source made the active and inactive calls. How the calls were made is not given here.

As for `CC(=O)Nc1ccc(O)cc1`, the mutagenic call is “inactive; negative” (Species/Cell Type: Human lymphocytes, Assay Type: Sister-chromatid exchange (SCE) in vitro, Assay Code: SCL-, Evaluation Type: Evaluation B (Post-1980)) and “no conclusion” under setting [1].
On to `O=C(Cl)c1ccccc1`, for which, under setting [2], the mutagenic call is reported as “no conclusion”.
For `Cc1cc2cc3ccccc3cc2c2ccccc12`, the mutagenic call was “active; positive” (Species/Cell Type: Nonhuman, Assay Type: Sister-chromatid exchange (SCE) in vitro, Assay Code: SC2+D, Dose Response: With dose response, Evaluation Type: Evaluation B (Post-1980)) and “active; positive” under setting [3].
`c1cc2ccc3ccc4ccc5cccc6c(c1)c2c3c4c56`: the mutagenic call under setting [1] is reported as “no conclusion”.
For `COc1ccc(N)c(OC)c1`, the call (Species/Cell Type: Nonhuman, Assay Code: CCG-, Evaluation Type: Evaluation A (Pre-1980)) is “inactive; negative”.
Turning to `CCC(C)=O`, the mutagenic call was “no conclusion” under setting [2] and “inactive; negative” (Species/Cell Type: Mammalian polychromatic erythrocytes, Assay Type: Micronucleus test, chromosome aberrations, Assay Code: MNT-, Evaluation Type: Evaluation B (Post-1980)).
`c1cncc([C@@H]2CCCCN2)c1`: under setting [4], the mutagenic call was “no conclusion”.
Regarding `CC(=O)Nc1ccc2c(c1)Cc1cc(NC(C)=O)ccc1-2`, the mutagenic call under setting [5] was “active; positive”.
For the compound `Cc1cc2c(c3ccc4ccccc4c13)C(=O)CC2`, under setting [3], the mutagenic call was “active; positive”.
Consider `O=C1C=Cc2ccc3c4c(ccc1c24)-c1ccccc1C3=O`, for which the mutagenic call (Species/Cell Type: Chinese hamster lung (V79) cells, Assay Type: Forward gene mutation at the HPRT or ouabain locus, Assay Code: V79-, Evaluation Type: Evaluation A (Pre-1980)) is “inactive; negative” and the mutagenic call under setting [1] is listed as “no conclusion”. The call (Species/Cell Type: Nonhuman, Assay Code: CCGT, Evaluation Type: Evaluation A (Pre-1980)) is given as “no conclusion”.
In the case of `O=S1(=O)OC2(c3ccc(O)cc3Oc3cc(O)ccc32)c2ccccc21`, the mutagenic call under setting [1] is given as “no conclusion”.
`CCCCCC[C@@H](O)C1C2=C(CC([C@H](O)C3CCCC(=O)O3)CC3=C(C(=O)OC3=O)[C@@H]1O)C(=O)OC2=O` (stereo partly drawn): where the note is “Species/Cell Type: Rodents, Sex: Male, Assay Type: Dominant lethal test, Assay Code: DLT-, Evaluation Type: Evaluation A (Pre-1980)”, the mutagenic call was “inactive; negative”.
With `CCCCC/C=C\C/C=C\C/C=C\C/C=C\CCCC(=O)O`, the mutagenic call was “no conclusion” under setting [6]; “no conclusion” (Species/Cell Type: Mammalian polychromatic erythrocytes, Assay Type: Micronucleus test, chromosome aberrations, Assay Code: MNTT, Evaluation Type: Evaluation B (Post-1980)); “no conclusion” under setting [4].
Consider `CC(=O)O[C@H]1C[C@@H]2CC[C@@H]3[C@H](CC[C@@]4(C)[C@H]3C[C@H]([N+]3(C)CCCCC3)[C@@H]4OC(C)=O)[C@@]2(C)C[C@@H]1[N+]1(C)CCCCC1`, for which the mutagenic call under setting [1] is “no conclusion”.
On to `NC(=O)c1ccc(/C=C/c2ccc([N+](=O)[O-])o2)cc1`, for which the mutagenic call by setting is: under setting [7], “active; positive”; under setting [8], “active; positive”; (Species/Cell Type: Neurospora crassa, Assay Type: Reverse gene mutation, Assay Code: NER+, Evaluation Type: Evaluation A (Pre-1980)) “active; positive”; under setting [9], “active; positive”; (Species/Cell Type: Saccharomyces cerevisiae, Assay Type: Reverse gene mutation, Assay Code: YER+, Evaluation Type: Evaluation A (Pre-1980)) “active; positive”.
As to `O=P1(N(CCCl)CCCl)NC(OO)CCO1` (stereo not drawn), the mutagenic call (Species/Cell Type: Human lymphocytes, Assay Type: Sister-chromatid exchange (SCE) in vitro, Assay Code: SCL+D, Dose Response: With dose response, Evaluation Type: Evaluation B (Post-1980)) was “active; positive” and the mutagenic call (Species/Cell Type: Human, Assay Type: Sister-chromatid exchange (SCE) in vitro, Assay Code: SC1+D, Dose Response: With dose response, Evaluation Type: Evaluation B (Post-1980)) was “active; positive”.
As for `COc1cc2c(c3oc4cccc(O)c4c(=O)c13)[C@@H]1C=CO[C@@H]1O2`, the mutagenic call is, setting by setting: under setting [2], “no conclusion”; (Species/Cell Type: Human diploid fibroblasts, Assay Type: Unscheduled DNA synthesis (UDS) in vitro, DNA effects, Assay Code: UDH+*, Activation: With metabolic activation, Evaluation Type: Evaluation A (Pre-1980)) “active; positive”; under setting [8], “active; positive”; (Species/Cell Type: Nonhuman, Assay Type: Chromosome aberrations in vitro, Assay Code: CY&+, Evaluation Type: Evaluation A (Pre-1980)) “active; positive”; (Species/Cell Type: Nonhuman, Assay Type: Sister-chromatid exchange (SCE) in vivo, Assay Code: SC3+D, Dose Response: With dose response, Evaluation Type: Evaluation B (Post-1980)) “active; positive”; (Species/Cell Type: Saccharomyces cerevisiae, Assay Type: Mitotic recombination or gene conversion, Assay Code: YEH+*, Activation: With metabolic activation, Evaluation Type: Evaluation A (Pre-1980)) “active; positive”. Also, under setting [5], the mutagenic call was “active; positive”. Where the note is “Species/Cell Type: Nonhuman, Assay Code: CCG+, Evaluation Type: Evaluation A (Pre-1980)”, the call was “active; positive”.
In the case of `Cc1cc2c(c3ccc4ccccc4c13)CCC2C` (stereo not drawn), under setting [3], the mutagenic call is “active; positive”.
As for `C1=CC2OC2c2cc3ccc4ccccc4c3cc21` (stereo not drawn), the mutagenic call (Species/Cell Type: Drosophila melanogaster, Assay Type: Sex-linked recessive lethal gene mutation, Assay Code: SRLT, Evaluation Type: Evaluation A (Pre-1980)) is “no conclusion” and the mutagenic call (Species/Cell Type: Mouse prostate cells, Assay Type: Cell transformation, Assay Code: CTM+, Evaluation Type: Evaluation A (Pre-1980)) was “active; positive”.
For `CC1=C(C(C)O)c2cc3nc(cc4[nH]c(cc5[nH]c(cc1n2)c(C)c5CCC(=O)O)c(CCC(=O)O)c4C)C(C(C)O)=C3C` (stereo not drawn), under setting [6], the mutagenic call was “no conclusion”.
Regarding `CN(CCCCCC(=O)OC[C@H](N)C(=O)O)N=O`, the mutagenic call is, setting by setting: (Species/Cell Type: Escherichia coli polA (W3110 vs P3478), Assay Type: Rec-assay, DNA effects (bacterial DNA repair), Assay Code: RE2T, Evaluation Type: Evaluation A (Pre-1980)) “no conclusion”; (Species/Cell Type: Escherichia coli polA (W3119 vs P3478), Assay Type: Rec-assay, DNA effects (bacterial DNA repair), Assay Code: RE1T, Evaluation Type: Evaluation A (Pre-1980)) “no conclusion”.
For `Nc1ccc(/C=C/c2ccc([N+](=O)[O-])o2)nn1`, the mutagenic call is “active; positive” (Species/Cell Type: Glycine max (soybean), Assay Type: Gene mutation, Assay Code: GLM+, Evaluation Type: Evaluation A (Pre-1980)); “active; positive” (Species/Cell Type: Human lymphocytes, Assay Type: Sister-chromatid exchange (SCE) in vitro, Assay Code: SCL+, Evaluation Type: Evaluation B (Post-1980)); “active; positive” (Species/Cell Type: Human lymphocytes, Assay Type: Sister-chromatid exchange (SCE) in vitro, Assay Code: SCL+D, Dose Response: With dose response, Evaluation Type: Evaluation A (Pre-1980)); “active; positive” (Species/Cell Type: Human, Assay Type: Sister-chromatid exchange (SCE) in vitro, Assay Code: SC1+, Evaluation Type: Evaluation B (Post-1980)); “active; positive” (Species/Cell Type: Human, Assay Type: Sister-chromatid exchange (SCE) in vitro, Assay Code: SC1+D, Dose Response: With dose response, Evaluation Type: Evaluation A (Pre-1980)); “active; positive” (Species/Cell Type: Saccharomyces cerevisiae, Assay Type: Forward and reverse gene mutation, mitotic recombination and gene conversion, DNA effects, body fluid assay, Assay Code: BFC+, Evaluation Type: Evaluation A (Pre-1980)). The mutagenic call was “inactive; negative” (Species/Cell Type: Saccharomyces cerevisiae, Assay Type: Forward and reverse gene mutation, mitotic recombination and gene conversion, host-mediated assay, Assay Code: HME-, Evaluation Type: Evaluation A (Pre-1980)); “active; positive” (Species/Cell Type: Saccharomyces cerevisiae, Assay Type: Mitotic recombination or gene conversion, Assay Code: YEC+, Evaluation Type: Evaluation A (Pre-1980)); “active; positive” under setting [9].
Consider `Cc1c2ccccc2c(CCl)c2ccc3ccccc3c12`, for which the mutagenic call under setting [5] was “active; positive”.
Consider `CS(=O)(=O)OC/C=C/COS(C)(=O)=O`, for which the mutagenic call under setting [7] is “active; positive”.
